The record followed here is ChEMBL document CHEMBL1208782, “Synthesis and pharmacological validation of a novel series of non-steroidal FXR agonists” (Bioorg Med Chem Lett, 2010).

Assay [1] addresses T1, Bile acid receptor (Homo sapiens) (UniProt Q96RI1).
T1 sequence (whole entry): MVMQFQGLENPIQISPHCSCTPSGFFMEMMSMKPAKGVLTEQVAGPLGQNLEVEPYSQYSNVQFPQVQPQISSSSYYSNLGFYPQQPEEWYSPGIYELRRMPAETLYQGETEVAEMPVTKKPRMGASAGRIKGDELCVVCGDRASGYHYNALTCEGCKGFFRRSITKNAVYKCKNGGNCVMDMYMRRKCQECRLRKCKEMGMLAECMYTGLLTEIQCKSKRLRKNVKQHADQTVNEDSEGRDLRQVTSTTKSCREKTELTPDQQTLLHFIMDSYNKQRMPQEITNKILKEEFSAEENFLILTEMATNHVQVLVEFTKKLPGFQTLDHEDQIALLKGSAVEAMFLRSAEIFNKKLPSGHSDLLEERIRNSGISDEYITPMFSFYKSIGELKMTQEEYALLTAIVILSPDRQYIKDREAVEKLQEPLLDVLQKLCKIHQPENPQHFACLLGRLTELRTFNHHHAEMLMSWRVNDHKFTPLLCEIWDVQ
Nature of the assay: Agonist activity at human full length FXR transfected in HEK293 cells coexpressing pTRexDest/pGL2promotor assessed as luciferase activity by direct reporter cellular assay relative to GW-4064. The assay is classed as functional, cell-based.

Assay [2] addresses T2, Retinoic acid receptor beta (Homo sapiens) (UniProt P10826).
T2 sequence (whole entry): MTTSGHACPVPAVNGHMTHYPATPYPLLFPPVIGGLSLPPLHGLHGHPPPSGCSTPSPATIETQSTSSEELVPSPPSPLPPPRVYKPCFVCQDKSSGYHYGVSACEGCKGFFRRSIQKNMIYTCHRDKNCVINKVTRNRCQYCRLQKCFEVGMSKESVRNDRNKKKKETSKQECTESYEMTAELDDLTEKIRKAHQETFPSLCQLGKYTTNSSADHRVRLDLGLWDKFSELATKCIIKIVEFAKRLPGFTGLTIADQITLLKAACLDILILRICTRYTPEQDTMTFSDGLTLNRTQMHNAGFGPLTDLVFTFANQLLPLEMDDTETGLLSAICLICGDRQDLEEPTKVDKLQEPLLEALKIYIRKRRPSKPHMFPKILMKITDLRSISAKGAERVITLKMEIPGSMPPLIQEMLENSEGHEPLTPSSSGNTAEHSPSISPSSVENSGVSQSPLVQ
The assay can be described thus: Agonist activity at RARbeta-LBD expressed in HEK293 cells assessed as Gal4-DBD interaction by cellular mammalian one hybrid assay relative to retinoic acid. The assay is classed as functional, cell-based.

The target in assay [3] is T1, Bile acid receptor (Homo sapiens). The assay can be described thus: Agonist activity at human GST-fused FXR LBD assessed as cofactor peptide interaction with receptor ligand binding domain by FRET assay relative to GW-4064.
A further assay concerns the target T3, Bile acid receptor (Homo sapiens, UniProt Q96RI1).
T3 sequence (Q96RI1 whole entry): T1 sequence (whole entry)
Nature of the assay: Agonist activity at human GST-fused FXR LBD assessed as cofactor peptide interaction with receptor ligand binding domain by FRET assay.

Assay [4] has as its target T4, Androgen receptor (Homo sapiens) (UniProt P10275).
T4 sequence (whole entry): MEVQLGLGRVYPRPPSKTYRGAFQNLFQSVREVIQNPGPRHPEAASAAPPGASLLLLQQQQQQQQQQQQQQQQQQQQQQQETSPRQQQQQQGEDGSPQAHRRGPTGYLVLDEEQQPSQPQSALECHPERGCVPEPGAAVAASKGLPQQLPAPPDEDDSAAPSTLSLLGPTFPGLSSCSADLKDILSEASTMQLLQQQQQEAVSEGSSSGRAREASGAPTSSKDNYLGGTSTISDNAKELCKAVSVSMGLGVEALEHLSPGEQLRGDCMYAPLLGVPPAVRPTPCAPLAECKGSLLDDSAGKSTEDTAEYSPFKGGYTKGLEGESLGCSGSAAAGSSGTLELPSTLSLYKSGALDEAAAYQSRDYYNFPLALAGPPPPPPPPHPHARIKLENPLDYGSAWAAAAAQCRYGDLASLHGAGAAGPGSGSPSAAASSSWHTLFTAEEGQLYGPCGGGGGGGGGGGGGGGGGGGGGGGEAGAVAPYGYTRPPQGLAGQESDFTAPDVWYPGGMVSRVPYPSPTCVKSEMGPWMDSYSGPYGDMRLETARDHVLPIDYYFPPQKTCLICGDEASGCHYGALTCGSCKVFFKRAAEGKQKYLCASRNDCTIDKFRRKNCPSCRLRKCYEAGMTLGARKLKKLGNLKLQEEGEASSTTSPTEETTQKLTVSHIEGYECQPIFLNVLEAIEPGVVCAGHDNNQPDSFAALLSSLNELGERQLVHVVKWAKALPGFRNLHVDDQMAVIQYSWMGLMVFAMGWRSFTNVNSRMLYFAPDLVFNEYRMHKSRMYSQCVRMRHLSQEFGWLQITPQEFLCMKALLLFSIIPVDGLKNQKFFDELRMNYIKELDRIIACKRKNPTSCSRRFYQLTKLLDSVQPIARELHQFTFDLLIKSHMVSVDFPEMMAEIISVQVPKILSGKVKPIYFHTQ
The assay can be described thus: Agonist activity at androgen receptor-LBD expressed in HEK293 cells assessed as Gal4-DBD interaction by cellular mammalian one hybrid assay relative to androgen. Type of assay: functional, cell-based.

In assay [5] the target is T5, Peroxisome proliferator-activated receptor alpha (Homo sapiens) (UniProt Q07869).
T5 sequence (whole entry): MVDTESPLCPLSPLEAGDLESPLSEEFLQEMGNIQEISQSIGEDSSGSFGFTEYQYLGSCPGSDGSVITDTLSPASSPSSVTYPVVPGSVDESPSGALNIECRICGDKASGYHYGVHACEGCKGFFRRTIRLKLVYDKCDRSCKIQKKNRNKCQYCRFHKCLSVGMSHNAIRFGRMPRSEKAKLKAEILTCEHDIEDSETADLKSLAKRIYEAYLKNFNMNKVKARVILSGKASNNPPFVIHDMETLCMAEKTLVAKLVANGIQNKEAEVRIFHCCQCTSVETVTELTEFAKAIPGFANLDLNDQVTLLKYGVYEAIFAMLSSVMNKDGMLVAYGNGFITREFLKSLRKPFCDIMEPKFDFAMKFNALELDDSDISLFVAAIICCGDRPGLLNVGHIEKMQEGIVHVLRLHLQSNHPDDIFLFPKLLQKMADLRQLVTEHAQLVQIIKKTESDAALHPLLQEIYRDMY
Nature of the assay: Agonist activity at PPARalpha-LBD expressed in HEK293 cells assessed as Gal4-DBD interaction by cellular mammalian one hybrid assay relative to GW-7467. The assay is classed as functional, cell-based.

pEC50: −log10 of the molar value.

In the case of `CC(C)c1onc(-c2c(Cl)cccc2Cl)c1COc1ccc(N(C)Cc2ccc(C(=O)O)cc2)c(C(F)(F)F)n1`, the Efficacy turned out to be 57% in assay [1]; 0% in assay [2]; 97% in assay [3]; 0% in assay [4]; 0% in assay [5]. Also, the pEC50 on Bile acid receptor is 7.66.
Consider `CN(Cc1cccc(C(=O)O)c1)c1ccc(OCc2c(-c3c(Cl)cccc3Cl)noc2C2CC2)nc1C(F)(F)F`, for which the Efficacy came to 43% in assay [1]; 0% in assay [2]; 102% in assay [3]; 0% in assay [4]; 15% in assay [5]. Besides, the pEC50 at Bile acid receptor was 8.52.
As for `CN(Cc1ccc(C(=O)O)cc1)c1ccc(OCc2c(-c3c(Cl)cccc3Cl)noc2C2CC2)nc1C(F)(F)F`, the Efficacy in assay [1] was found to be 60%; in assay [2] it was 0%; in assay [3] it was 109%; in assay [4], 0%; in assay [5], 0%. In addition, the pEC50 on Bile acid receptor is 7.92.
